In one series the test system is HCMV strain AD169. In words: HCMV AD169 replication in human fibroblasts treated with 4-PBA, TCID50. Format: cell-based, human cytomegalovirus. Particulars: 0.1 pfu/cell; day 8 post infection; range of 4-PBA doses. An excerpt:
FIG. 10. 4-PBA inhibits HCMV replication in a dose-dependent manner. […] The medium with drug was replaced every other day. Cell-free and cell-associated virus was collected on day 8 post infection and titered by the TCID50 method. Data represent the log mean titer of duplicate samples.
To explore the hypothesis that HCMV might actually require the UPR to occur in order to maintain cellular homeostasis despite high levels of expression of viral glycoproteins, HCMV-infected human fibroblasts (HFFs) were treated with an inhibitor of the UPR, the chemical chaperone sodium 4-phenylbutyrate (4-PBA).

Another series concerns human fibroblasts. Briefly: trypan blue exclusion viability of confluent human fibroblasts treated with 4-PBA. It counts as cell-based. Conditions: 8 days; up to highest dose tested. As for the experimental part: (§1) FIG. 11. 4-PBA is not toxic to uninfected or infected confluent human fibroblasts. (A) Fibroblasts were maintained in medium containing the indicated concentrations of 4-PBA for 8 days. The medium was replaced every other day throughout the time course. At the end of the treatment period, cell viability was measured by the trypan blue exclusion assay. Date points represent the mean of duplicate wells. (B) Fibroblasts were infected with HCMV at a multiplicity of 0.1 pfu/cell. Cells were fed every other day with fresh medium containing the indicated concentration of 4-PBA. At eight days post infection, cells were washed once with media, and then media lacking drug was added. Eight days later (16 days post infection) cell free virus in the supernatant was quantitated by the TCID50 method. Date points represent the mean of duplicate wells.
(§2) Two experiments were performed to rule out the possibility that 4-PBA is simply toxic to the cells and inhibits HCMV indirectly by reducing cell viability (FIG. 11). In the first experiment (FIG. 11A) an assay for cell viability was performed on confluent human fibroblasts treated for eight days with different concentrations of the drug. […] Then the drug was removed and the yield of virus was determined 8 days later.

Series [1] deals with HCMV. In words: 4-PBA reversibility: HCMV yield 8 days after drug removal, TCID50. It counts as cell-based, human cytomegalovirus. Particulars: all doses tested; 8-day treatment; 16 days post infection. The method, then: as §1, §2
The target of the next series is mTOR (Homo sapiens, UniProt P42345). Particulars: read-out: IC50 of selective mTOR inhibitor; cited from earlier work.
The subject of another series is PI3Ks. Conditions: cited from earlier work.
Series [2] relates to panel of 140 protein kinases. Particulars: read-out: IC50 against panel of 140 protein kinases; cited from earlier work.
Series [3] has as its system HCMV. In words: HCMV multistep growth in serum-starved human fibroblasts, cell-free virus by TCID50. It counts as cell-based, human cytomegalovirus. Particulars: day 10; 0.05 PFU/cell; rapamycin 20 nM, Torin1 250 nM.
The next series concerns MCMV. Briefly: MCMV replication in MEFs, cell-free virus by TCID50. Format: cell-based, murine cytomegalovirus. Particulars: wild-type MEFs; 0.05 PFU/cell; rapamycin 20 nM, Torin1 250 nM.

By IC50 is commonly meant the concentration needed to halve the response being measured.

Entries after “also recorded” stand apart in the source; their conditions may differ. Bounds are passed on as bounds.

As for `O=C([O-])CCCc1ccccc1.[Na+]` [4-PBA, sodium 4-phenylbutyrate], in the series on HCMV strain AD169, the “HCMV replication / virus production” value is given as “effectively inhibited virus replication in a dose-dependent manner; also recorded: inhibited virus production in a dose-dependent manner”. For the same compound, the “cellular viability / toxicity, trypan blue exclusion” value in the series on human fibroblasts was “no effect on cellular viability; also recorded: not toxic”. Besides, the “virus yield 8 days after drug removal” value in the series on HCMV [1] is “recovered and produced a normal yield”.
Regarding `COC(=O)Nc1ccc(-c2nc(N3CCOCC3)c3cnn(C4CCN(C(=O)OC)CC4)c3n2)cc1` [WYE354], the IC50 on mTOR was 5 nM.
With `CNC(=O)Nc1ccc(-c2nc(N3CC4CCC(C3)O4)c3cnn(C4CCC5(CC4)OCCO5)c3n2)cc1` [WYE-125132], the IC50 at mTOR was 0.19 nM. In addition, in the series on PI3Ks, the “fold selective versus PI3Ks (PI3K)” value was > 5,000 fold.
For the compound `O=C(Nc1ccc(-c2nc(N3CC4CCC(C3)O4)c3sccc3n2)cc1)NC1CC1` [Wyeth-BMCL-200910075-9b], the IC50 on mTOR was 0.7 nM. In addition, the “fold selective versus PI3Ks (PI3K)” value with PI3Ks is listed as > 1,000 fold.
As for `Cc1c(C(=O)N2CCOc3ccc(-c4ccc(N)nc4)cc3C2)ccc(S(C)(=O)=O)c1F` [XL388], in series [2], the IC50 was more than 3000 nM.
Regarding `CO[C@H]1C[C@@H]2CC[C@@H](C)[C@@](O)(O2)C(=O)C(=O)N2CCCC[C@H]2C(=O)O[C@H]([C@H](C)C[C@@H]2CC[C@@H](O)[C@H](OC)C2)CC(=O)[C@H](C)/C=C(\C)[C@@H](O)[C@@H](OC)C(=O)[C@H](C)C[C@H](C)/C=C/C=C/C=C/1C` [rapamycin], in the series with HCMV [3], the “reduction of HCMV yield” value is given as approximately 8 fold. Further, in the series on MCMV, the MCMV replication result is listed as “no inhibitory effect”.
